Measured values published in patent US11673889B2, “Substituted imidazo[4,5-c][1,8]naphthyridines as phosphodiesterase inhibitors” (Nanjing Zhengxiang Pharmaceuticals Co., Ltd., priority 2019, dated 2023).

Columns and labels:
[1] = biological target: T1, ENPP-1, MDA-MB-231 cells (Homo sapiens, UniProt P22413); assay: cell-based; conditions: for inhibition at 20 µM: MDA-MB-231, read-out: % Inhibition (at 20 μM)
T1 sequence (P22413 1-925): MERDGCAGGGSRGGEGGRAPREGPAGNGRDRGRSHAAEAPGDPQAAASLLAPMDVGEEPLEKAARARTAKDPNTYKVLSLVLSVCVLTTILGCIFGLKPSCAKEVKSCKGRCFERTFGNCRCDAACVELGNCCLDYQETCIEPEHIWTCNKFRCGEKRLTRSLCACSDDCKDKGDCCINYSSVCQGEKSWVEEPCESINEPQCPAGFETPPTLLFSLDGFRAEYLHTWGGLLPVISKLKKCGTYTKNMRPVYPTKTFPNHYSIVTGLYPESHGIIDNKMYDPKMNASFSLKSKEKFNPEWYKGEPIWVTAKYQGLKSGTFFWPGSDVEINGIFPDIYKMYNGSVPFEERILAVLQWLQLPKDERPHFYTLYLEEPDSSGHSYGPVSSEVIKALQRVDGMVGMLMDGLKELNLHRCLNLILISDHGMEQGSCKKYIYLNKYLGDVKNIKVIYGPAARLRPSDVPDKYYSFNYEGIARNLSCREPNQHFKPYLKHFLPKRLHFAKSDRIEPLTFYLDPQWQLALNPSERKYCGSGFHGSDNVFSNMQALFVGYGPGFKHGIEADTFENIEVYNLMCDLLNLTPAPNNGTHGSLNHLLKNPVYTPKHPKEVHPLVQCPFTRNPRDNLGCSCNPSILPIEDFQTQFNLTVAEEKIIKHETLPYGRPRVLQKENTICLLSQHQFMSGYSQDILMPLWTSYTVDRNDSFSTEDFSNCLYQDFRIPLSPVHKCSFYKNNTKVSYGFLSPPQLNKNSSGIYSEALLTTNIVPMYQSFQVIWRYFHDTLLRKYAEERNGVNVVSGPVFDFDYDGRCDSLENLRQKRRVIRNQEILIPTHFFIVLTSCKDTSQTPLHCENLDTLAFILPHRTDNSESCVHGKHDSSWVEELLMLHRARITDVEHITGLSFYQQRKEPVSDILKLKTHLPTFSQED
Experimental: ENPP-1 were mainly expressed on the surface of cell membrane where it hydrolytes 2′3′-cGAMP to generate 5′-GMP and 5′-AMP. ENPP-1 also has the ability to hydrolyzes artificial phosphoric acid ester TMP-pNP to nucleotide-5′-monophosphate and p-nitrophcnol there, which is a chromogenic product.
8 point of different concentrations of each inhibitor were prepared with the final assay concentrations starting at 20 μM. 3× series dilution by DMEM medium without FBS was applied. Prior to adding inhibitors, 75000 cells per well were incubated at 37° C., 5% CO2 in DMEM for 24 hours. After removing the supernatant medium, 50 μL inhibitor solution was added into each well with cultured cells and incubate at 37° C., 5% CO2 for 60 minutes.
(§1) The IC50 values for percent inhibition versus compound concentration are determined by fitting the inhibition curves using a four-parameter variable slope model in GraphPad Prism® 8.

[2] = biological target: T2, human soluble ENPP1 (Homo sapiens, UniProt P22413); assay: ENPP1 activity assay using p-Nitrophenyl-5′-TMP as a substrate; type: biochemical
T2 construct: 20 ng of human soluble ENPP1
T2 sequence (P22413 103-925 limits assumed): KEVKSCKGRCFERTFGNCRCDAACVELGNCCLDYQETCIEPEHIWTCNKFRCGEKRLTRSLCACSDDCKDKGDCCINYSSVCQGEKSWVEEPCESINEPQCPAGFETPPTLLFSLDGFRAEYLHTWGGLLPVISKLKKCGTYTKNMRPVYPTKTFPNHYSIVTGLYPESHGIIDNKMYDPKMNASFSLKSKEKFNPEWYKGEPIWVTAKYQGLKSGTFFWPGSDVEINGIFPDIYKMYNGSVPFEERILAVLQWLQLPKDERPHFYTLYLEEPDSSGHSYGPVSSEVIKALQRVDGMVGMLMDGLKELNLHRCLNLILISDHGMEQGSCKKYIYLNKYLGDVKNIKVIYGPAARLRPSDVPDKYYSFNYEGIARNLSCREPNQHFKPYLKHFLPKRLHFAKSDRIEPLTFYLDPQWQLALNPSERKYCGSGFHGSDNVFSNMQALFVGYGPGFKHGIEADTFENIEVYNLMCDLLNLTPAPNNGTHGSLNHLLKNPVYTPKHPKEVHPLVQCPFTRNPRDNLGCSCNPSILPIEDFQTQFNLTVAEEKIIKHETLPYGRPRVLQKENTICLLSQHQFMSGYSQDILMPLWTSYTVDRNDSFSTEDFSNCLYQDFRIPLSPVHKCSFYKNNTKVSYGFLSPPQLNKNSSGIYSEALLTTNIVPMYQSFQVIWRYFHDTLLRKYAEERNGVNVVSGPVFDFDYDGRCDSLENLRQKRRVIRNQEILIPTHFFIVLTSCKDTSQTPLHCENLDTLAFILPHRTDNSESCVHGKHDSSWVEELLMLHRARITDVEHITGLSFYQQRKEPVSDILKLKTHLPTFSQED
Experimental: ENPP1 is a transmembrane glycoprotein that hydrolyzes nucleotides and nucleotide derivatives with the formation of nucleotide-5′-monophosphates. ENPP1 hydrolyzes artificial phosphoric acid ester thymidine 5′monophosphate p-nitrophenyl ester (TMP-pNP) to nucleotide-5′-monophosphate and p-nitrophenol, which is a chromogenic product.
Load into a well with 20 ng of human soluble ENPP1 in 50 μL and incubate at room temperature with 25 μL inhibitor solution (4× Final Concentration) for 30 mins. Then, add 25 μL 2 mM TMP solution (2× Final Concentration) into the well, Incubate at RT for 1 hour.
(§2) The percent inhibition at each compound is calculated as follows: % inhibition=(ODMAX−ODCOMPOUND)/(ODMAX−ODMIN)*100. (MAX: absence of ENPP1 inhibitors control, MIN: blank control.)
The IC50 values for percent inhibition versus compound concentration were determined by fitting the inhibition curves using a four-parameter variable slope model in GraphPad Prism® 8.

[3] = biological target: T2, human soluble ENPP1; assay: ENPP1 activity assay using p-Nitrophenyl-5′-AMP as a substrate; type: biochemical
Experimental: AMP-pNP can be used as substrate of ENPP-1. Its hydrolysis products were nucleotide-5′-monophosphate and p-nitrophcnol, which is also a chromogenic product. The amount of p-nitrophenol product formed is measured using its absorbance at 405 nm, which is directly proportional to enzyme activity.
Load into a well with […] of human soluble ENPP1 in 50 μL and incubate at room temperature with 25 μL inhibitor solution (4× Final Concentration) for 30 mins prior adding 25 μL 3 mM AMP solution (2× Final Concentration) into the well, Incubate at RT for 1 hour. The amounts of released p-nitrophenolate were measured by reading OD value at 405 nm.
as §2, §1

[4] = substrate TMP-pNP, 20 ng human soluble ENPP1, Tris buffer pH 9.5, read-out: TMP-pNP (IC50)

Row | SMILES | IC50 [1] [nM] | inhibition at 20 µM [1] [%] | IC50 [2] [nM] | IC50 [3] [nM] | IC50 [2, 4] [nM]
1 | COc1ccc2c(n1)nc(C)c1ncn(Cc3ccc(S(N)(=O)=O)c(F)c3)c12 [Compound 88, 2-fluoro-4-((7-methoxy-4-methyl-1H-imidazo[4,5-c][1,8]naphthyridin-1-yl)methyl)benzenesulfonamide] | 2200 | 81 | 4 | 12 | 
2 | COc1ccc2c(n1)nc(C)c1nc(C)n(Cc3cc(F)c(S(N)(=O)=O)cc3F)c12 [Compound 90, 2,5-difluoro-4-((7-methoxy-2,4-dimethyl-1H-imidazo[4,5-c][1,8]naphthyridin-1-yl)methyl)benzenesulfonamide] | 980 | 74 | 2.4 | 7.7 | 
3 | COc1ccc2c(n1)nc(C)c1nc(C)n(Cc3ncc(S(N)(=O)=O)cn3)c12 [Compound 91a, 2-((7-methoxy-2,4-dimethyl-1H-imidazo[4,5-c][1,8]naphthyridin-1-yl)methyl)pyrimidine-5-sulfonamide] | > 6700 | 53 |  | 323 | 83
4 | COc1ccc2c(n1)nc(C)c1nc(CN(C)C)n(Cc3cc(F)c(S(N)(=O)=O)cc3F)c12 [Compound 92, 4-((2-((dimethylamino)methyl)-7-methoxy-4-methyl-1H-imidazo[4,5-c][1,8]naphthyridin-1-yl)methyl)-2,5-difluorobenzenesulfonamide] | 4100 | 68 | 9.3 | 29 | 
5 | COCCc1nc2c(C)nc3nc(OC)ccc3c2n1Cc1cc(F)c(S(N)(=O)=O)cc1F [Compound 93, 2,5-difluoro-4-((7-methoxy-2-(2-methoxyethyl)-4-methyl-1H-imidazo[4,5-c][1,8]naphthyridin-1-yl)methyl)benzenesulfonamide] | 2200 | 74 | 3.7 | 13 | 
6 | COc1ccc2c(n1)nc(C)c1nc(CO)n(Cc3cc(F)c(S(N)(=O)=O)cc3F)c12 [Compound 94, 2,5-difluoro-4-((2-(hydroxymethyl)-7-methoxy-4-methyl-1H-imidazo[4,5-c][1,8]naphthyridin-1-yl)methyl)benzenesulfonamide] | 2700 | 74 | 3.4 | 8.8 | 
7 | COc1ccc2c(ncc3[nH]c(=O)n(Cc4ccc(S(N)(=O)=O)c(F)c4F)c32)n1 [Compound 95, 2,3-difluoro-4-((7-methoxy-2-oxo-2,3-dihydro-1H-imidazo[4,5-c][1,8]naphthyridin-1-yl)methyl)benzenesulfonamide] | 1400 | 75 |  | 4.6 | 1.4
8 | COc1ccc2c(ncc3[nH]c(=O)n(Cc4ccc(S(N)(=O)=O)nc4)c32)n1 [Compound 96, 5-((7-methoxy-2-oxo-2,3-dihydro-1H-imidazo[4,5-c][1,8]naphthyridin-1-yl)methyl)pyridine-2-sulfonamide] | 11000 | 57 |  | 5.4 | 1.7
9 | COc1ccc2c(ncc3[nH]c(=O)n(CC4CC(OS(N)(=O)=O)C4)c32)n1 (centres unmarked) [Compound 97, 3-((7-methoxy-2-oxo-2,3-dihydro-1H-imidazo[4,5-c][1,8]naphthyridin-1-yl)methyl)cyclobutyl sulfamate] | 810 | 78 | 0.56 | 1.1 | 
10 | COc1ccc2c(ncc3[nH]c(=O)n(Cc4ccc(S(N)(=O)=O)c(F)c4)c32)n1 [Compound 98, 2-fluoro-4-((7-methoxy-2-oxo-2,3-dihydro-1H-imidazo[4,5-c][1,8]naphthyridin-1-yl)methyl)benzenesulfonamide] | 3800 | 62 |  | 3 | 0.6
11 | COc1ccc2c(ncc3[nH]c(=O)n(Cc4ccc(S(N)(=O)=O)cn4)c32)n1 [Compound 99, 6-((7-methoxy-2-oxo-2,3-dihydro-1H-imidazo[4,5-c][1,8]naphthyridin-1-yl)methyl)pyridine-3-sulfonamide] | 600 | 77 | 0.27 | 0.79 | 
12 | COc1ccc2c(ncc3[nH]c(=O)n([C@H](C)c4ccc(S(N)(=O)=O)cc4)c32)n1 [Compound 101, (R)-4-(1-(7-methoxy-2-oxo-2,3-dihydro-1H-imidazo[4,5-c][1,8]naphthyridin-1-yl)ethyl)benzenesulfonamide] | 2400 | 76 | 0.67 | 1.1 | 
13 | COc1ccc2c(ncc3[nH]c(=O)n(Cc4c(F)cc(S(=O)(=O)NC(C)=O)cc4F)c32)n1 [Compound 104, sodium acetyl((3,5-difluoro-4-((7-methoxy-2-oxo-2,3-dihydro-1H-imidazo[4,5-c][1,8]naphthyridin-1-yl)methyl)phenyl)sulfonyl)amide] | 3400 | 72 | 8.9 | 11 | 
14 | CCC(=O)NS(=O)(=O)c1cc(F)c(Cn2c(=O)[nH]c3cnc4nc(OC)ccc4c32)c(F)c1 [Compound 105, sodium ((3,5-difluoro-4-((7-methoxy-2-oxo-2,3-dihydro-1H-imidazo[4,5-c][1,8]naphthyridin-1-yl)methyl)phenyl)sulfonyl)(propionyl)amide] | > 6700 | 67 |  | 19 | 21
